# Measured values reported in patent EP4752152A1, “STEROID COMPOUND, AND PREPARATION METHOD THEREFOR AND USE THEREOF” (Cholesgen (Shanghai) Co.Ltd., priority 2023, dated 2025).
# Key:
# [1] = Metabolic stability experiment of mouse liver microsomes; type: in vitro ADME
# Method: PB solution (100 mM), MgCl2 solution (300 mM), NADPH solution (2.04 mM), and mouse liver microsome (SHQY catalog number: M1000, batch number: 2110330) solution (1.00 mg/mL) were prepared respectively. […] Then, 100 µL of mouse liver microsome solution was added to a 96-well sample plate. For the 0 min sample, acetonitrile solution containing the internal standard was first added; then, 2 µL of 100 µM working solution was added; followed by the addition of 98 µL of pre-warmed 2.04 mM NADPH at 37°C. For the 5 min, 15 min, 30 min, 45 min, and 60 min samples, 2 µL of 100 µM working solution was first added; followed by the addition of 98 µL of pre-warmed 2.04 mM NADPH at 37°C to initiate the reaction; upon reaching the respective time points, a solution of acetonitrile containing the internal standard was added to terminate the reaction. For the NCF60 sample, 2 µL of 100 µM working solution was first added; followed by the addition of 98 µL of pre-warmed PB at 37°C to initiate the reaction; upon reaching the respective time points, a solution of acetonitrile containing the internal standard was added to terminate the reaction. During the experiment, all samples were incubated in a 37°C water bath. All samples were shaken on an oscillator at 800 rpm for 10 min, then centrifuged at 3200 g for 20 min. The supernatant was aspirated, diluted with deionized water at the corresponding ratio, and analyzed by LC-MS/MS. The remaining percentage of the compound at each time point was obtained by dividing the peak area ratio of the compound at 5, 15, 30, 45, and 60 min by the peak area ratio at 0 min. The half-life (T1/2) of the compound was then calculated using Excel. Table 2: Mouse liver microsome stability results of compounds from some examples
# SREBP pathway = experiment: SREBP luciferase reporter gene system (SRE-luciferase assay); type: cell-based, human; conditions: Homo sapiens, Huh-7, 16 h, Huh-7/SRE-luc cells, sterol-deficient medium, 0.01-10 µM
# In short: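 Readout was SRE-driven luciferase normalised to GFP fluorescence in lysates of stably transfected Huh-7/SRE-luc hepatoma cells. Compounds (0.01, 0.03, 0.1, 0.3, 1.0, 3.0, 10 µM; DMSO control) were applied for 16 h in sterol-depleted medium with 2 µM lovastatin and 10 µM mevalonate; IC50 from variable-slope fit.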
# [2] = Solubility in fasted-state simulated intestinal fluid (FaSSIF); type: physicochemical; conditions: FaSSIF, pH 6.5, fassif, kinetic from dmso stock, FaSSIF pH 6.5, 300 µM sample solution, room temperature
# In short: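 Compound from 10.0 mM DMSO stock added to FaSSIF (phosphate/NaCl buffer, pH 6.5) at 300 µM nominal, shaken 1 h at room temperature, 1000 rpm. After centrifugation, supernatant concentration quantified by LC-MS/MS.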
# [3] = tested on: Fatty Acid Synthase (FASN) gene; experiment: Inhibition of FASN gene expression (qPCR) in Huh-7 cells; type: cell-based, human; conditions: Homo sapiens, Huh-7, 16 h, Huh-7 cells, starvation medium, 16 hours, qPCR; class symbols; read-out: FASN IC50
# In short: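 IC50 derived by four-parameter fit of FASN expression inhibition versus DMSO, measured by RT-qPCR. Compound exposure lasted 16 h at five 3-fold concentrations from 3000 nM, applied to Huh-7 cells in sterol-depleting medium with 5% LPDS, 2 µM lovastatin and 10 µM mevalonate.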
Structure (SMILES),half-life at 1 µM [1] [min],IC50 (SREBP pathway) [µM],solubility at 1 h [2] [µM],IC50 [3] [nM]
"COc1cccc(F)c1C(O)CCC[C@@H](C)[C@H]1CC[C@H]2[C@H]3[C@H](CC[C@]12C)[C@@]1(C)CC[C@H](O)[C@H](O)[C@@H]1CC3(F)F (stereo partly drawn) [Compound 49, (1R,3aS,3bS,5aR,6R,7S,9aR,9bS,11aR)-4,4-difluoro-1-[(2R)-6-(2-fluoro-6-methoxyphenyl)-6-hydroxyhexan-2-yl]-9a,11a-dimethylhexadecahydro-1H-cyclopenta[1,2-a]phenanthrene-6,7-diol]",113,0.06,281,200 to 500
"COc1cccc(C(O)CCC[C@@H](C)[C@H]2CC[C@H]3[C@H]4[C@H](CC[C@]23C)[C@@]2(C)CC[C@H](O)[C@H](O)[C@@H]2CC4(F)F)c1F (stereo partly drawn) [Compound 63, (1R,3aS,3bS,5aR,6R,7S,9aR,9bS,11aR)-4,4-difluoro-1-[(2R)-6-(2-fluoro-3-methoxyphenyl)-6-hydroxyhexan-2-yl]-9a,11a-dimethylhexadecahydro-1H-cyclopenta[1,2-a]phenanthrene-6,7-diol]",> 185,0.121,147,< 200
"COc1ncccc1C(O)CCC[C@@H](C)[C@H]1CC[C@H]2[C@H]3[C@H](CC[C@]12C)[C@@]1(C)CC[C@H](O)[C@H](O)[C@@H]1CC3(F)F (stereo partly drawn) [Compound 81, (1R,3aS,3bS,5aR,6R,7S,9aR,9bS,11aR)-4,4-difluoro-1-[(2R)-6-(2-methoxypyridin-3-yl)-6-hydroxyhexan-2-yl]-9a,11a-dimethylhexadecahydro-1H-cyclopenta[1,2-a]phenanthrene-6,7-diol]",115,0.11,279,< 200
"COc1cc(F)cc(F)c1C(O)CCC[C@@H](C)[C@H]1CC[C@H]2[C@H]3[C@H](CC[C@]12C)[C@@]1(C)CC[C@H](O)[C@H](O)[C@@H]1CC3(F)F (stereo partly drawn) [Compound 98, (1R,3aS,3bS,5aR,6R,7S,9aR,9bS,11aR)-1-[(2R)-6-(4,6-difluoro-2-methoxyphenyl)-6-hydroxyhexan-2-yl]-4,4-difluoro-9a,11a-dimethylhexadecahydro-1H-cyclopenta[1,2-a]phenanthrene-6,7-diol]",250,0.095,199,< 200
"COc1nc(F)ccc1C(O)CCC[C@@H](C)[C@H]1CC[C@H]2[C@H]3[C@H](CC[C@]12C)[C@@]1(C)CC[C@H](O)[C@H](O)[C@@H]1CC3(F)F (stereo partly drawn) [Compound 108, (1R,3aS,3bS,5aR,6R,7S,9aR,9bS,11aR)-4,4-difluoro-1-[(2R)-6-(6-fluoro-2-methoxypyridin-3-yl)-6-hydroxyhexan-2-yl]-9a,11a-dimethylhexadecahydro-1H-cyclopenta[1,2-a]phenanthrene-6,7-diol]",185,0.0359,303,< 200
"COc1cccc(F)c1[C@@H](O)CCC[C@@H](C)[C@H]1CC[C@H]2[C@H]3[C@H](CC[C@]12C)[C@@]1(C)CC[C@H](O)[C@H](O)[C@@H]1CC3(F)F [Compound 127, (1R,3aS,3bS,5aR,6R,7S,9aR,9bS,11aR)-4,4-difluoro-1-[(2R,6S)-6-(2-fluoro-6-methoxyphenyl)-6-hydroxyhexan-2-yl]-9a,11a-dimethylhexadecahydro-1H-cyclopenta[1,2-a]phenanthrene-6,7-diol]",112,0.07,209,200 to 500
"COc1cccc(F)c1[C@H](O)CCC[C@@H](C)[C@H]1CC[C@H]2[C@H]3[C@H](CC[C@]12C)[C@@]1(C)CC[C@H](O)[C@H](O)[C@@H]1CC3(F)F [Compound 128, (1R,3aS,3bS,5aR,6R,7S,9aR,9bS,11aR)-4,4-difluoro-1-[(2R,6R)-6-(2-fluoro-6-methoxyphenyl)-6-hydroxyhexan-2-yl]-9a,11a-dimethylhexadecahydro-1H-cyclopenta[1,2-a]phenanthrene-6,7-diol]",> 186,0.139,199,200 to 500
"COc1cc(F)ccc1[C@@H](O)CCC[C@@H](C)[C@H]1CC[C@H]2[C@H]3[C@H](CC[C@]12C)[C@@]1(C)CC[C@H](O)[C@H](O)[C@@H]1CC3(F)F [Compound 140, (1R,3aS,3bS,5aR,6R,7S,9aR,9bS,11aR)-4,4-difluoro-1-[(2R,6S)-6-(4-fluoro-2-methoxyphenyl)-6-hydroxyhexan-2-yl]-9a,11a-dimethylhexadecahydro-1H-cyclopenta[1,2-a]phenanthrene-6,7-diol]",321,0.11,178,< 200
"COc1cc(F)ccc1[C@H](O)CCC[C@@H](C)[C@H]1CC[C@H]2[C@H]3[C@H](CC[C@]12C)[C@@]1(C)CC[C@H](O)[C@H](O)[C@@H]1CC3(F)F [Compound 141, (1R,3aS,3bS,5aR,6R,7S,9aR,9bS,11aR)-4,4-difluoro-1-[(2R,6R)-6-(4-fluoro-2-methoxyphenyl)-6-hydroxyhexan-2-yl]-9a,11a-dimethylhexadecahydro-1H-cyclopenta[1,2-a]phenanthrene-6,7-diol]",291,0.017,150,< 200
